pKi: −log10 of the molar value. Structures can show the parent of a compound that is named as a salt.
Target: T1, calpain-I isolated from human erythrocytes (Homo sapiens, UniProt P07384)
T1 construct: calpain-I—isolated from human erythrocytes (Calbiochem #208713); purchased Calbiochem 208713; host or cells: human erythrocytes (native tissue isolate)
T1 sequence (P07384 1-714): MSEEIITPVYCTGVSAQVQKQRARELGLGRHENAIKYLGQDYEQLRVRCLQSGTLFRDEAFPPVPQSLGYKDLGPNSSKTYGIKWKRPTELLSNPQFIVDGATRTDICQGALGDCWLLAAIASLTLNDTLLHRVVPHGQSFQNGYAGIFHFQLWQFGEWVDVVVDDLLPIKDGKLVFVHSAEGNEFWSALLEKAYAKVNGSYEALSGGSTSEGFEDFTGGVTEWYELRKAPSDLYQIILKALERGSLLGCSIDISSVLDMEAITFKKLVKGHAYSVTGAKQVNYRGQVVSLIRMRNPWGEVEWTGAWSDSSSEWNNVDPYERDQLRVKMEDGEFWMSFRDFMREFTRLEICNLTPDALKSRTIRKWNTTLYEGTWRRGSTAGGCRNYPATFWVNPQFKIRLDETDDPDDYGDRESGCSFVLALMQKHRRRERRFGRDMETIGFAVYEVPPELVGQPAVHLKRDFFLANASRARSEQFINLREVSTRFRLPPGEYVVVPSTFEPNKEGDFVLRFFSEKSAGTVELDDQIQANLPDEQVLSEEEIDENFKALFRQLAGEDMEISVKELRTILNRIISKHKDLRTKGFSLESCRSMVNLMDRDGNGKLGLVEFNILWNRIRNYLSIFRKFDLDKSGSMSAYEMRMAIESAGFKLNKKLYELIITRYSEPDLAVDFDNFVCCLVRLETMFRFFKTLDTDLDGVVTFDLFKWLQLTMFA
T1 sequence (P04632 1-268 partner): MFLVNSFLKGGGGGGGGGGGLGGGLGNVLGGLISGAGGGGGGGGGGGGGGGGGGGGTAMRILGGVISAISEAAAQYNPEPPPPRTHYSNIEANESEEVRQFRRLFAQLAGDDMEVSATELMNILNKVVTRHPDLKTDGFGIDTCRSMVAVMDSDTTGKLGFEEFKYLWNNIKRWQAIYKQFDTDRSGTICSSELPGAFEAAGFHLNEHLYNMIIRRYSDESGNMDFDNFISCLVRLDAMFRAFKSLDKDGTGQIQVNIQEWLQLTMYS
Assay: Calpain I kinetic fluorescence enzyme inhibition assay
Type: biochemical
Settings: apparent Ki from IC50 by Cheng-Prussoff
Procedure: Testing for blockade of the corresponding enzymic activities was carried out by means of kinetic fluorescence assays (excitation 390 nm, emission 460 nm).
Apparent Ki values were calculated from the experimentally determined IC50 values by the Cheng-Prussoff relation assuming a reversible competitive enzyme inhibition.
20 nM calpain-I—isolated from human erythrocytes (Calbiochem #208713), 100 μM Suc-Leu-Tyr-AMC (Bachem #I-1355) as substrate in buffer with 62 mM imidazole, 0.3 mM CaCl2, 0.10% CHAPS, 0.05% BSA, 1 mM DTT at pH 7.3 and room temperature.

| Compound | pKi |
| --- | --- |
| NC(=O)C(=O)C(Cc1ccccc1)NC(=O)c1cccnc1-n1ccc(CN2Cc3ccccc3C2=O)n1 (stereo not drawn) [Example 36, N-(4-Amino-3,4-dioxo-1-phenylbutan-2-yl)-2-(3-((1-oxoisoindolin-2-yl)methyl)-1H-pyrazol-1-yl)nicotinamide] | > 6.60 |
| CCCCC(NC(=O)c1cccnc1-n1ccc(CN2CCCCC2)n1)C(=O)C(N)=O (stereo not drawn) [Example 37, N-(1-Amino-1,2-dioxoheptan-3-yl)-2-(3-(piperidin-1-ylmethyl)-1H-pyrazol-1-yl)nicotinamide] | > 6.60 |
| CCCCC(NC(=O)c1cccnc1-n1ccc(CN2CCC(F)(F)CC2)n1)C(=O)C(N)=O (stereo not drawn) [Example 38, N-(1-Amino-1,2-dioxoheptan-3-yl)-2-(3-((4,4-difluoropiperidin-1-yl)methyl)-1H-pyrazol-1-yl)nicotinamide] | > 6.60 |
| CCCCC(NC(=O)c1cccnc1-n1ccc(CN2Cc3ccccc3C2)n1)C(=O)C(N)=O (stereo not drawn) [Example 39, N-(1-Amino-1,2-dioxoheptan-3-yl)-2-(3-(isoindolin-2-ylmethyl)-1H-pyrazol-1-yl)nicotinamide] | > 6.60 |
| NC(=O)C(=O)C(Cc1ccccc1)NC(=O)c1cccnc1-n1cc2c(n1)CCN(Cc1ccccc1)C2 (stereo not drawn) [Example 40, N-(4-Amino-3,4-dioxo-1-phenylbutan-2-yl)-2-(5-benzyl-4,5,6,7-tetrahydro-2H-pyrazolo[4,3-c]pyridin-2-yl)nicotinamide] | > 6.60 |
| NC(=O)C(=O)C(Cc1ccccc1)NC(=O)c1cccnc1-n1cc2c(n1)CCN(CC1CC1)C2 (stereo not drawn) [Example 41, N-(4-Amino-3,4-dioxo-1-phenylbutan-2-yl)-2-(5-(cyclopropylmethyl)-4,5,6,7-tetrahydro-2H-pyrazolo[4,3-c]pyridin-2-yl)nicotinamide] | > 6.60 |
| NC(=O)C(=O)C(Cc1ccccc1)NC(=O)c1cccnc1-n1cc2c(n1)CCNC2 (stereo not drawn) [Example 42, N-(4-Amino-3,4-dioxo-1-phenylbutan-2-yl)-2-(4,5,6,7-tetrahydro-2H-pyrazolo[4,3-c]pyridin-2-yl)nicotinamide hydrochloride] | > 6.60 |
| CC(C)(C)OC(=O)N1Cc2cn(-c3ncccc3C(=O)NC(Cc3ccccc3)C(=O)C(N)=O)nc2C1 (stereo not drawn) [Example 43, tert-Butyl 2-(3-(4-amino-3,4-dioxo-1-phenylbutan-2-ylcarbamoyl)pyridin-2-yl)-4,6-dihydropyrrolo[3,4-c]pyrazole-5(2H)-carboxylate] | > 6.60 |
| NC(=O)C(=O)C(Cc1ccccc1)NC(=O)c1cccnc1-n1cc2c(n1)CNC2 (stereo not drawn) [Example 44, N-(4-Amino-3,4-dioxo-1-phenyl-2-butanyl)-2-(5,6-dihydropyrrolo[3,4-c]pyrazol-2(4H)-yl)nicotinamide hydrochloride] | > 6.60 |
| CC(C)(C)OC(=O)N1CCc2cn(-c3ncccc3C(=O)NC(Cc3ccccc3)C(=O)C(N)=O)nc2C1 (stereo not drawn) [Example 45, tert-Butyl 2-(3-(4-amino-3,4-dioxo-1-phenylbutan-2-ylcarbamoyl)pyridin-2-yl)-2,4,5,7-tetrahydro-6H-pyrazolo[3,4-c]pyridine-6-carboxylate] | > 6.60 |
| NC(=O)C(=O)C(Cc1ccccc1)NC(=O)c1cccnc1-n1cc2c(n1)CNCC2 (stereo not drawn) [Example 46, N-(4-Amino-3,4-dioxo-1-phenyl-2-butanyl)-2-(4,5,6,7-tetrahydro-pyrazolo[3,4-c]pyridin-2-yl)nicotinamide hydrochloride] | > 6.60 |
| O=C(NC1CC1)C(=O)C(Cc1ccccc1)NC(=O)c1cccnc1-n1ccc(CN2Cc3ccccc3C2)n1 (stereo not drawn) [Example C2, reference compound] | 6.00 to 6.10 |

Reference: patent US9150545B2, “Carboxamide compounds and their use as calpain inhibitors V” (ABBVIE DEUTSCHLAND GMBH & CO. KG, priority 2012, dated 2015)
